Experiments:
Experiment in all cases: Test B pre-/postemergence plant response
Type in all cases: in vivo
[1] = tested on: soybean (Glycine max)
In short: (§1)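 Seeds were sown in loam soil/sand blend and treated preemergence with compound in non-phytotoxic solvent mixture containing surfactant; postemergence sprays, same formulation, went onto plants 2 to 18 cm (1- to 4-leaf stage) in peat-based planting medium. Greenhouse 13 to 15 days, then visual rating versus untreated controls, 0 (no effect) to 100 (complete control).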

[2] = tested on: johnsongrass (Sorghum halepense)
In short: as §1

[3] = tested on: morningglory (Ipomoea coccinea)
In short: as §1

[4] = tested on: green foxtail (Setaria viridis)
In short: as §1

[5] = tested on: kochia (Kochia scoparia)
In short: as §1

[6] = tested on: cocklebur (Xanthium strumarium)
In short: as §1

[7] = tested on: corn (Zea mays)
In short: as §1

[8] = tested on: blackgrass (Alopecurus myosuroides)
In short: as §1

[9] = tested on: velvetleaf (Abutilon theophrasti)
In short: as §1

[10] = tested on: ragweed (common ragweed, Ambrosia elatior)
In short: as §1

[11] = tested on: large crabgrass (Digitaria sanguinalis)
In short: as §1

[12] = tested on: goosegrass (Eleusine indica)
In short: as §1

[13] = tested on: giant foxtail (Setaria faberii)
In short: as §1

[14] = tested on: Italian ryegrass (Lolium multiflorum)
In short: as §1

[15] = 31 g ai/ha, postemergence, scale 0 to 100, 0 is no effect, 100 is complete control
[16] = Postemergence, 62 g ai/ha, scale 0 (no effect) to 100 (complete control), 13 to 15 days
[17] = Postemergence, 125 g ai/ha, visual rating after 13 to 15 days, scale 0 (no effect) to 100 (complete control)
[18] = Postemergence, 250 g ai/ha, scale 0 to 100 (0 no effect, 100 complete control)
[19] = Preemergence, 31 g ai/ha, scale 0 to 100 (0 no effect, 100 complete control)
[20] = Preemergence, 62 g ai/ha, scale 0 to 100 (0 no effect, 100 complete control)
[21] = Preemergence, 125 g ai/ha, scale 0 to 100, 0 no effect, 100 complete control
[22] = 250 g ai/ha, Preemergence, 0 to 100 scale

Cc1cc(-n2c(-c3ccccc3)ncc(C(=O)C3=C(O)CCCC3=O)c2=O)ccc1F [Compound 53]
50: Plant response rating, Blackgrass [8, 18]
25: Plant response rating, Morningglory [3, 21]
70: Plant response rating, Soybean [1, 20] | Plant response rating, Cocklebur [6, 22]
90: Plant response rating, Soybean [1, 15] | Plant response rating, Cocklebur [6, 18] | Plant response rating, Foxtail, Giant [13, 17]
75: Plant response rating, Johnsongrass [2, 22] | Plant response rating, Morningglory [3, 16] | Plant response rating, Kochia [5, 17] | Plant response rating, Ragweed [10, 20] | Plant response rating, Crabgrass, Large [11, 19] | Plant response rating, Goosegrass [12, 15]
100: Plant response rating, Johnsongrass [2, 18] | Plant response rating, Foxtail, Green [4, 16] | Plant response rating, Foxtail, Green [4, 17] | Plant response rating, Foxtail, Green [4, 18] | Plant response rating, Crabgrass, Large [11, 22] | Plant response rating, Crabgrass, Large [11, 18] | Plant response rating, Crabgrass, Large [11, 20] | Plant response rating, Crabgrass, Large [11, 21] | Plant response rating, Goosegrass [12, 22] | Plant response rating, Goosegrass [12, 20] | Plant response rating, Goosegrass [12, 21] | Plant response rating, Foxtail, Giant [13, 22] | Plant response rating, Foxtail, Giant [13, 21]
65: Plant response rating, Kochia [5, 16] | Plant response rating, Cocklebur [6, 21] | Plant response rating, Ragweed [10, 19]
0: Plant response rating, Soybean [1, 19] | Plant response rating, Morningglory [3, 19] | Plant response rating, Corn [7, 19] | Plant response rating, Corn [7, 20] | Plant response rating, Corn [7, 21] | Plant response rating, Blackgrass [8, 19] | Plant response rating, Ryegrass, Italian [14, 15] | Plant response rating, Ryegrass, Italian [14, 19] | Plant response rating, Ryegrass, Italian [14, 20] | Plant response rating, Ryegrass, Italian [14, 21]
60: Plant response rating, Johnsongrass [2, 21] | Plant response rating, Foxtail, Green [4, 19] | Plant response rating, Foxtail, Green [4, 20] | Plant response rating, Blackgrass [8, 22]
80: Plant response rating, Soybean [1, 21] | Plant response rating, Morningglory [3, 17] | Plant response rating, Kochia [5, 18] | Plant response rating, Cocklebur [6, 15] | Plant response rating, Corn [7, 16] | Plant response rating, Corn [7, 17] | Plant response rating, Velvetleaf [9, 19] | Plant response rating, Ragweed [10, 15] | Plant response rating, Goosegrass [12, 16] | Plant response rating, Goosegrass [12, 17] | Plant response rating, Foxtail, Giant [13, 15]
55: Plant response rating, Johnsongrass [2, 15] | Plant response rating, Johnsongrass [2, 20] | Plant response rating, Morningglory [3, 15] | Plant response rating, Corn [7, 15]
85: Plant response rating, Cocklebur [6, 16] | Plant response rating, Cocklebur [6, 17] | Plant response rating, Corn [7, 18] | Plant response rating, Velvetleaf [9, 15] | Plant response rating, Velvetleaf [9, 16] | Plant response rating, Ragweed [10, 16] | Plant response rating, Ragweed [10, 21] | Plant response rating, Crabgrass, Large [11, 15] | Plant response rating, Goosegrass [12, 18] | Plant response rating, Foxtail, Giant [13, 16] | Plant response rating, Foxtail, Giant [13, 20]
45: Plant response rating, Kochia [5, 15] | Plant response rating, Ryegrass, Italian [14, 18]
5: Plant response rating, Blackgrass [8, 20] | Plant response rating, Blackgrass [8, 21] | Plant response rating, Foxtail, Giant [13, 19] | Plant response rating, Ryegrass, Italian [14, 16]
98: Plant response rating, Morningglory [3, 18] | Plant response rating, Foxtail, Green [4, 22] | Plant response rating, Foxtail, Green [4, 21] | Plant response rating, Velvetleaf [9, 18] | Plant response rating, Velvetleaf [9, 20] | Plant response rating, Velvetleaf [9, 21] | Plant response rating, Ragweed [10, 18] | Plant response rating, Goosegrass [12, 19]
40: Plant response rating, Blackgrass [8, 17] | Plant response rating, Ryegrass, Italian [14, 17]
30: Plant response rating, Blackgrass [8, 16]
20: Plant response rating, Morningglory [3, 20] | Plant response rating, Cocklebur [6, 20] | Plant response rating, Corn [7, 22] | Plant response rating, Blackgrass [8, 15]
95: Plant response rating, Soybean [1, 16] | Plant response rating, Soybean [1, 17] | Plant response rating, Soybean [1, 18] | Plant response rating, Johnsongrass [2, 16] | Plant response rating, Johnsongrass [2, 17] | Plant response rating, Foxtail, Green [4, 15] | Plant response rating, Velvetleaf [9, 17] | Plant response rating, Ragweed [10, 17] | Plant response rating, Crabgrass, Large [11, 16] | Plant response rating, Crabgrass, Large [11, 17] | Plant response rating, Foxtail, Giant [13, 18]
10: Plant response rating, Johnsongrass [2, 19] | Plant response rating, Cocklebur [6, 19]

Cn1c(-c2ccccc2)ncc(C(=O)C2=C(O)CCCC2=O)c1=O [Compound 55]
90: Plant response rating, Velvetleaf [9, 15]
75: Plant response rating, Soybean [1, 18] | Plant response rating, Morningglory [3, 17] | Plant response rating, Kochia [5, 17] | Plant response rating, Cocklebur [6, 18] | Plant response rating, Velvetleaf [9, 19] | Plant response rating, Crabgrass, Large [11, 16] | Plant response rating, Goosegrass [12, 18] | Plant response rating, Foxtail, Giant [13, 18]
15: Plant response rating, Soybean [1, 21] | Plant response rating, Cocklebur [6, 22]
80: Plant response rating, Foxtail, Green [4, 17] | Plant response rating, Foxtail, Green [4, 18] | Plant response rating, Ragweed [10, 16] | Plant response rating, Crabgrass, Large [11, 17]
5: Plant response rating, Corn [7, 16] | Plant response rating, Corn [7, 17] | Plant response rating, Blackgrass [8, 17]
20: Plant response rating, Johnsongrass [2, 18] | Plant response rating, Kochia [5, 15]
40: Plant response rating, Foxtail, Green [4, 16]
100: Plant response rating, Velvetleaf [9, 18] | Plant response rating, Velvetleaf [9, 21]
65: Plant response rating, Kochia [5, 16] | Plant response rating, Cocklebur [6, 17] | Plant response rating, Ragweed [10, 20] | Plant response rating, Goosegrass [12, 17]
98: Plant response rating, Velvetleaf [9, 16] | Plant response rating, Velvetleaf [9, 17] | Plant response rating, Velvetleaf [9, 20] | Plant response rating, Ragweed [10, 18] | Plant response rating, Crabgrass, Large [11, 22] | Plant response rating, Goosegrass [12, 22] | Plant response rating, Goosegrass [12, 21]
45: Plant response rating, Morningglory [3, 21] | Plant response rating, Cocklebur [6, 15] | Plant response rating, Goosegrass [12, 15] | Plant response rating, Goosegrass [12, 19]
70: Plant response rating, Ragweed [10, 15]
55: Plant response rating, Morningglory [3, 15] | Plant response rating, Ragweed [10, 19] | Plant response rating, Foxtail, Giant [13, 17]
85: Plant response rating, Morningglory [3, 18] | Plant response rating, Kochia [5, 18] | Plant response rating, Ragweed [10, 21] | Plant response rating, Crabgrass, Large [11, 18]
30: Plant response rating, Foxtail, Green [4, 15] | Plant response rating, Blackgrass [8, 22] | Plant response rating, Foxtail, Giant [13, 16]
95: Plant response rating, Ragweed [10, 17] | Plant response rating, Crabgrass, Large [11, 21] | Plant response rating, Goosegrass [12, 20]
25: Plant response rating, Soybean [1, 15] | Plant response rating, Foxtail, Giant [13, 15]
10: Plant response rating, Johnsongrass [2, 17] | Plant response rating, Cocklebur [6, 20] | Plant response rating, Cocklebur [6, 21] | Plant response rating, Corn [7, 18] | Plant response rating, Blackgrass [8, 18] | Plant response rating, Crabgrass, Large [11, 19] | Plant response rating, Foxtail, Giant [13, 22]
60: Plant response rating, Soybean [1, 16] | Plant response rating, Soybean [1, 17] | Plant response rating, Morningglory [3, 16] | Plant response rating, Cocklebur [6, 16] | Plant response rating, Crabgrass, Large [11, 15] | Plant response rating, Crabgrass, Large [11, 20] | Plant response rating, Goosegrass [12, 16]
0: Plant response rating, Soybean [1, 19] | Plant response rating, Soybean [1, 20] | Plant response rating, Johnsongrass [2, 15] | Plant response rating, Johnsongrass [2, 22] | Plant response rating, Johnsongrass [2, 16] | Plant response rating, Johnsongrass [2, 19] | Plant response rating, Johnsongrass [2, 20] | Plant response rating, Johnsongrass [2, 21] | Plant response rating, Morningglory [3, 19] | Plant response rating, Morningglory [3, 20] | Plant response rating, Foxtail, Green [4, 22] | Plant response rating, Foxtail, Green [4, 19] | Plant response rating, Foxtail, Green [4, 20] | Plant response rating, Foxtail, Green [4, 21] | Plant response rating, Cocklebur [6, 19] | Plant response rating, Corn [7, 15] | Plant response rating, Corn [7, 22] | Plant response rating, Corn [7, 19] | Plant response rating, Corn [7, 20] | Plant response rating, Corn [7, 21] | Plant response rating, Blackgrass [8, 15] | Plant response rating, Blackgrass [8, 16] | Plant response rating, Blackgrass [8, 19] | Plant response rating, Blackgrass [8, 20] | Plant response rating, Blackgrass [8, 21] | Plant response rating, Foxtail, Giant [13, 19] | Plant response rating, Foxtail, Giant [13, 20] | Plant response rating, Foxtail, Giant [13, 21] | Plant response rating, Ryegrass, Italian [14, 15] | Plant response rating, Ryegrass, Italian [14, 16] | Plant response rating, Ryegrass, Italian [14, 17] | Plant response rating, Ryegrass, Italian [14, 18] | Plant response rating, Ryegrass, Italian [14, 19] | Plant response rating, Ryegrass, Italian [14, 20] | Plant response rating, Ryegrass, Italian [14, 21]
